test system: HIV-IIIb (MT-4 cells); assay: Test A: Antiviral Assays in MT4 Cells; format: cell-based; settings: MT4, 120 h, MT-4 cells infected with HIV-IIIb, 5 days of incubation, CellTiter-Glo readout
Description: The antiviral properties of a compound disclosed herein may be determined using Test A described below.
Test A: Antiviral Assays in MT4 Cells
For the antiviral assay utilizing MT-4 cells, 0.4 μL of […] test concentration of 3-fold serially diluted compound in DMSO was added to 40 μL of cell growth medium (RPMI 1640, 10% FBS, 1% penicillin/Streptomycin, 1% L-Glutamine, 1% HEPES) in each well of 384-well assay plates (10 concentrations) in quadruplicate.
1 mL aliquots of 2×10e6 MT-4 cells are pre-infected for 1 and 3 hrs respectively, @ 37° C. with 25 μL (MT4) or of either cell growth medium (mock-infected) or a fresh 1:250 dilution of an HIV-IIIb concentrated ABI stock (0.004 m.o.i. for MT4 cells). Infected and uninfected cells are diluted in cell growth medium and 35 μL of 2000 (for MT4) cells is added to each well of the assay plates.
Assay plates were then incubated in a 37° C. incubator. After 5 days of incubation, […] 2× concentrated CellTiter-Glo™ Reagent (catalog #G7573, Promega Biosciences, Inc., Madison, Wis.) was added to each well of the assay plate. Cell lysis was carried out by incubating at room temperature for 2-3 min and then chemiluminescence was read using the Envision reader (PerkinElmer).

SMILES	EC50
COc1cccc(Cn2c(=O)ccc3c(-c4ccc5c6c(ccnc46)CCO5)c([C@H](OC(C)(C)C)C(=O)O)c(C)cc32)c1 (atropisomer, axis not shown) [Example 26, (S)-2-tert-butoxy-2-((R)-5-(2,3-dihydropyrano[4,3,2-de]quinolin-7-yl)-1-(3-methoxybenzyl)-7-methyl-2-oxo-1,2-dihydroquinolin-6-yl)acetic acid]	0.0993 µM
CCCCCC(C)(C)O[C@H](C(=O)O)c1c(C)cc2nc(C)ccc2c1-c1ccc2c3c(ccnc13)CCO2 (atropisomer, axis not shown) [Example 43, (S)-2-((S)-5-(2,3-Dihydropyrano[4,3,2-de]quinolin-7-yl)-2,7-dimethylquinolin-6-yl)-2-(2-methylheptan-2-yloxy)acetic acid]	39.4 µM
Cc1cc2c(ccc(=O)n2Cc2cccc(S(C)(=O)=O)c2)c(-c2ccc(Cl)cc2)c1[C@H](OC(C)(C)C)C(=O)O [Example 6, (S)-2-tert-Butoxy-2-(5-(4-chlorophenyl)-7-methyl-1-(3-(methylsulfonyl)benzyl)-2-oxo-1,2-dihydroquinolin-6-yl)acetic acid]	0.29 µM
Cc1cc2c(ccc(=O)n2Cc2ccc(OC(F)(F)F)cc2)c(-c2ccc3c4c(ccnc24)CCO3)c1[C@H](OC(C)(C)C)C(=O)O (atropisomer, axis not shown) [Example 16, (S)-2-tert-Butoxy-2-((R)-5-(2,3-dihydropyrano[4,3,2-de]quinolin-7-yl)-7-methyl-2-oxo-1-(4-(trifluoromethoxy)benzyl)-1,2-dihydroquinolin-6-yl)acetic acid]	1.61 µM
CC(=O)Nc1ccc2c(-c3ccc4c5c(ccnc35)CCO4)c([C@H](OC(C)(C)C)C(=O)O)c(C)cc2n1 (atropisomer, axis not shown) [Example 48, (S)-2-((R)-2-Acetamido-5-(2,3-dihydropyrano[4,3,2-de]quinolin-7-yl)-7-methylquinolin-6-yl)-2-tert-butoxyacetic acid]	0.361 µM
Cc1cc2nc(OCc3cccc(C(F)(F)F)c3)ccc2c(-c2ccc3c4c(ccnc24)CCO3)c1[C@H](OC(C)(C)C)C(=O)O (atropisomer, axis not shown) [Example 3, (S)-2-tert-Butoxy-2-((R)-5-(2,3-dihydropyrano[4,3,2-de]quinolin-7-yl)-7-methyl-2-(3-(trifluoromethyl)benzyloxy)quinolin-6-yl)acetic acid]	0.123 µM

same assay, conditions: MT-4 cells infected with HIV-IIIb, 5 days of incubation, CellTiter-Glo readout

SMILES	EC50
CCC(C)(C)O[C@H](C(=O)O)c1c(C)cc2nc(C)ccc2c1-c1ccc2c3c(ccnc13)CCO2 (atropisomer, axis not shown) [Example 45, (S)-2-((S)-5-(2,3-Dihydropyrano[4,3,2-de]quinolin-7-yl)-2,7-dimethylquinolin-6-yl)-2-(tert-pentyloxy)acetic acid]	13.2 µM
CCC(C)(CC)O[C@H](C(=O)O)c1c(C)cc2nc(C)ccc2c1-c1ccc2c3c(ccnc13)CCO2 (atropisomer, axis not shown) [Example 41, (S)-2-((R)-5-(2,3-Dihydropyrano[4,3,2-de]quinolin-7-yl)-2,7-dimethylquinolin-6-yl)-2-(3-methylpentan-3-yloxy)acetic acid]	0.039 µM
CCC(C)(C)O[C@H](C(=O)O)c1c(C)cc2nc(C)ccc2c1-c1ccc2c3c(ccnc13)CCO2 (atropisomer, axis not shown) [Example 44, (S)-2-((R)-5-(2,3-Dihydropyrano[4,3,2-de]quinolin-7-yl)-2,7-dimethylquinolin-6-yl)-2-(tert-pentyloxy)acetic acid]	0.0117 µM

From patent US9376392B2, “2-(tert-butoxy)-2-(7-methylquinolin-6-yl) acetic acid derivatives for treating AIDS” (Gilead Sciences, Inc., priority 2012, dated 2016)
